Laboratory results taken from US11767322B2 (BRISTOL-MYERS SQUIBB COMPANY, priority 2020, dated 2023).
Where two headings read alike, the source gives them in different places.

Legend:
[1] = target: T1, His-GST-TVMV-hRIPK1(1-324) (Homo sapiens, UniProt Q13546); test: biochemical; format: binding; conditions: HTRF probe displacement, 1 h at rt; read-out: RIPK1 IC50
T1 construct: The coding region of human RIPK1(1-324) flanked by NdeI site at 5′ end; made in house; host or cells: Spodoptera frugiperda Sf9 insect cells (baculovirus, Bac-to-Bac)
T1 sequence (Q13546 1-324): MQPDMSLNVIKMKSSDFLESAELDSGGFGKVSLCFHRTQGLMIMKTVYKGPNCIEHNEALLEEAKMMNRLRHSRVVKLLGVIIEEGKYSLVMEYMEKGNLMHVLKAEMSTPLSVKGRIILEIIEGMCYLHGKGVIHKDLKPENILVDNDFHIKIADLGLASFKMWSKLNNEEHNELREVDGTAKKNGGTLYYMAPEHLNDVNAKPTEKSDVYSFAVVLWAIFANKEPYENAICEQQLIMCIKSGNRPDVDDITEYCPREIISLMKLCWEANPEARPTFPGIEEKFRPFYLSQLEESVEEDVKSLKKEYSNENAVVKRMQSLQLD

[2] = test system: MLKL phosphorylation in HT29-L23 human colorectal adenocarcinoma cells; test: MLKL phosphorylation high-content assay; format: cell-based; conditions: 6 h, necroptosis induced with TNFα, SMAC mimetic and Z-VAD, 6 h, maximal inhibition defined by Nec1s
[3] = Homo sapiens, read-out: pMLKL IC50, HT29-L23 cells
[4] = read-out: pMLKL IC50, HT29-L23 cells

Row | SMILES | IC50 [1] [nM] | IC50 [2, 3] [nM] | IC50 [2, 4] [nM]
1 | CC(O)(c1ccc(F)cc1)C(F)(F)CNC(=O)c1c(Cl)ccc(-c2ccn3nc(N)nc3c2)c1F (single isomer, unassigned) [Example 88, 3-(2-amino-[1,2,4]triazolo[1,5-a]pyridin-7-yl)-6-chloro-N-(2,2-difluoro-3-(4-fluorophenyl)-3-hydroxybutyl)-2-fluorobenzamide] | 3.6 | 2.4 | 
2 | Nc1nc2cc(-c3ccc(Cl)c(C(=O)NCC(F)(F)C(O)c4ccc(Cl)cc4F)c3F)ccn2n1 (single isomer, unassigned) [Example 162, 3-(2-amino-[1,2,4]triazolo[1,5-a]pyridin-7-yl)-6-chloro-N-(3-(4-chloro-2-fluorophenyl)-2,2-difluoro-3-hydroxypropyl)-2-fluorobenzamide] | 1.6 |  | 3.1
3 | Nc1nc2cc(-c3ccc(Cl)c(C(=O)NCC(F)(F)C(O)c4ccc(Cl)cc4F)c3F)ccn2n1 (single isomer, unassigned) [Example 163, 3-(2-amino-[1,2,4]triazolo[1,5-a]pyridin-7-yl)-6-chloro-N-(3-(4-chloro-2-fluorophenyl)-2,2-difluoro-3-hydroxypropyl)-2-fluorobenzamide] | 0.3 |  | 1.3
4 | Nc1nc2cc(-c3ccc(Cl)c(C(=O)NCC(F)(F)C(O)c4cccc(F)c4F)c3F)ccn2n1 (single isomer, unassigned) [Example 166, 3-(2-amino-[1,2,4]triazolo[1,5-a]pyridin-7-yl)-6-chloro-N-(3-(2,3-difluorophenyl)-2,2-difluoro-3-hydroxypropyl)-2-fluorobenzamide] | 2.1 | 5.1 | 
5 | Nc1nc2cc(-c3ccc(Cl)c(C(=O)NCC(F)(F)C(O)c4cccc(F)c4F)c3F)ccn2n1 (single isomer, unassigned) [Example 167, 3-(2-amino-[1,2,4]triazolo[1,5-a]pyridin-7-yl)-6-chloro-N-(3-(2,3-difluorophenyl)-2,2-difluoro-3-hydroxypropyl)-2-fluorobenzamide] | 15 |  | 7.8
6 | Nc1nc2cc(-c3ccc(Cl)c(C(=O)NCC(F)(F)C(O)c4cccc(F)c4)c3F)ccn2n1 (single isomer, unassigned) [Example 168, 3-{2-amino-[1,2,4]triazolo[1,5-a]pyridin-7-yl}-6-chloro-N-[2,2-difluoro-3-(3-fluorophenyl)-3-hydroxypropyl]-2-fluorobenzamide] | 0.3 |  | 1.1
7 | Nc1nc2cc(-c3ccc(Cl)c(C(=O)NCC(F)(F)C(O)c4cccc(F)c4)c3F)ccn2n1 (single isomer, unassigned) [Example 169, 3-{2-amino-[1,2,4]triazolo[1,5-a]pyridin-7-yl}-6-chloro-N-[2,2-difluoro-3-(3-fluorophenyl)-3-hydroxypropyl]-2-fluorobenzamide] | 0.9 |  | 28
8 | Nc1nc2cc(-c3ccc(Cl)c(C(=O)NCC(F)(F)C(O)c4cccc(Cl)c4F)c3F)ccn2n1 (single isomer, unassigned) [Example 170, 3-(2-amino-[1,2,4]triazolo[1,5-a]pyridin-7-yl)-6-chloro-N-(3-(3-chloro-2-fluorophenyl)-2,2-difluoro-3-hydroxypropyl)-2-fluorobenzamide] | 0.1 |  | 1.4
9 | Nc1nc2cc(-c3ccc(Cl)c(C(=O)NCC(F)(F)C(O)c4cccc(Cl)c4F)c3F)ccn2n1 (single isomer, unassigned) [Example 171, 3-(2-amino-[1,2,4]triazolo[1,5-a]pyridin-7-yl)-6-chloro-N-(3-(3-chloro-2-fluorophenyl)-2,2-difluoro-3-hydroxypropyl)-2-fluorobenzamide] | 1.6 |  | 10
10 | Nc1nc2cc(-c3ccc(Cl)c(C(=O)NCC(F)(F)C(O)c4cc(F)ccc4F)c3F)ccn2n1 (single isomer, unassigned) [Example 176, 3-(2-amino-[1,2,4]triazolo[1,5-a]pyridin-7-yl)-6-chloro-N-(3-(2,5-difluorophenyl)-2,2-difluoro-3-hydroxypropyl)-2-fluorobenzamide] | 0.3 |  | 1.9
11 | Nc1nc2cc(-c3ccc(Cl)c(C(=O)NCC(F)(F)C(O)c4cc(F)ccc4F)c3F)ccn2n1 (single isomer, unassigned) [Example 177, 3-(2-amino-[1,2,4]triazolo[1,5-a]pyridin-7-yl)-6-chloro-N-(3-(2,5-difluorophenyl)-2,2-difluoro-3-hydroxypropyl)-2-fluorobenzamide] | 1.8 |  | 23
12 | Nc1nc2cc(-c3ccc(Cl)c(C(=O)NCC(F)(F)C(O)c4ccc(F)cc4F)c3F)ccn2n1 (single isomer, unassigned) [Example 178, 3-(2-amino-[1,2,4]triazolo[1,5-a]pyridin-7-yl)-6-chloro-N-(3-(2,4-difluorophenyl)-2,2-difluoro-3-hydroxypropyl)-2-fluorobenzamide] | 0.9 |  | 22
13 | Nc1nc2cc(-c3ccc(Cl)c(C(=O)NCC(F)(F)C(O)c4ccc(F)cc4F)c3F)ccn2n1 (single isomer, unassigned) [Example 179, 3-(2-amino-[1,2,4]triazolo[1,5-a]pyridin-7-yl)-6-chloro-N-(3-(2,4-difluorophenyl)-2,2-difluoro-3-hydroxypropyl)-2-fluorobenzamide] | 0.3 |  | 3.7
14 | [2H]C([2H])([2H])C(O)(c1ccc(F)cc1)C(F)CNC(=O)c1c(C(F)F)ccc(-c2ccn3nc(N)nc3c2)c1F (single isomer, unassigned) [Example 195, 3-(2-amino-[1,2,4]triazolo[1,5-a]pyridin-7-yl)-6-(difluoromethyl)-2-fluoro-N-(2-fluoro-3-(4-fluorophenyl)-3-hydroxybutyl-4,4,4-d3)benzamide] | 8.4 | 1 | 
15 | [2H]C([2H])([2H])C(O)(c1ccc(F)cc1)C(F)CNC(=O)c1c(C(F)F)ccc(-c2ccn3nc(N)nc3c2)c1F (single isomer, unassigned) [Example 196, 3-(2-amino-[1,2,4]triazolo[1,5-a]pyridin-7-yl)-6-(difluoromethyl)-2-fluoro-N-(2-fluoro-3-(4-fluorophenyl)-3-hydroxybutyl-4,4,4-d3)benzamide] | 14 |  | 1
16 | [2H]C([2H])([2H])c1ccc(C(O)C(F)(F)CNC(=O)c2c(C([2H])([2H])[2H])ccc(-c3ccn4nc(N)nc4c3)c2F)cc1 (single isomer, unassigned) [Example 200, 3-(2-amino-[1,2,4]triazolo[1,5-a]pyridin-7-yl)-N-(2,2-difluoro-3-hydroxy-3-(4-(methyl-d3)phenyl)propyl)-2-fluoro-6-(methyl-d3)benzamide] | 4.7 | 0.8 | 
17 | [2H]C([2H])([2H])c1ccc(C(O)C(F)(F)CNC(=O)c2c(C([2H])([2H])[2H])ccc(-c3ccn4nc(N)nc4c3)c2F)cc1 (single isomer, unassigned) [Example 201, 3-(2-amino-[1,2,4]triazolo[1,5-a]pyridin-7-yl)-N-(2,2-difluoro-3-hydroxy-3-(4-(methyl-d3)phenyl)propyl)-2-fluoro-6-(methyl-d3)benzamide] | 6.7 |  | 0.9
18 | Cc1ccc(-c2ccn3nc(N)nc3c2)c(F)c1C(=O)NCC(C)(F)C(O)c1ccc(F)cc1 (single isomer, unassigned) [Example 202, 3-(2-amino-[1,2,4]triazolo[1,5-a]pyridin-7-yl)-2-fluoro-N-(2-fluoro-3-(4-fluorophenyl)-3-hydroxy-2-methylpropyl)-6-methylbenzamide] | 13 |  | 2.1
19 | Cc1ccc(-c2ccn3nc(N)nc3c2)c(F)c1C(=O)NCC(C)(F)C(O)c1ccc(F)cc1 (single isomer, unassigned) [Example 203, 3-(2-amino-[1,2,4]triazolo[1,5-a]pyridin-7-yl)-2-fluoro-N-(2-fluoro-3-(4-fluorophenyl)-3-hydroxy-2-methylpropyl)-6-methylbenzamide] | 5.6 |  | 2.7
20 | Cc1ccc(-c2ccn3nc(N)nc3c2)c(F)c1C(=O)NCC(C)(F)C(O)c1ccc(F)cc1 (single isomer, unassigned) [Example 204, 3-(2-amino-[1,2,4]triazolo[1,5-a]pyridin-7-yl)-2-fluoro-N-(2-fluoro-3-(4-fluorophenyl)-3-hydroxy-2-methylpropyl)-6-methylbenzamide] | 5.8 |  | 2.7
21 | Cc1ccc(-c2ccn3nc(N)nc3c2)c(F)c1C(=O)NCC(C)(F)C(O)c1ccc(F)cc1 (single isomer, unassigned) [Example 205, 3-(2-amino-[1,2,4]triazolo[1,5-a]pyridin-7-yl)-2-fluoro-N-(2-fluoro-3-(4-fluorophenyl)-3-hydroxy-2-methylpropyl)-6-methylbenzamide] | 6.2 |  | 5.1
22 | Cc1cc(F)c(-c2ccn3nc(N)nc3c2)cc1C(=O)NCC(F)(F)C(C)(O)c1ccc(Cl)cc1 (single isomer, unassigned) [Example 225, 5-(2-amino-[1,2,4]triazolo[1,5-a]pyridin-7-yl)-N-(3-(4-chlorophenyl)-2,2-difluoro-3-hydroxybutyl)-4-fluoro-2-methylbenzamide] | 19 | 3.8 | 
